{
  "source": "paper PMC5447021",
  "about": "“TNF Lectin-Like Domain Restores Epithelial Sodium Channel Function in Frameshift Mutants Associated with Pseudohypoaldosteronism Type 1B” (Frontiers in Immunology, 2017)",
  "format_in_all_cases": "cell-based, human",
  "key": {"αS452fs": {"tested_on": "αS452fs", "assay": "Membrane abundance of αS452fs", "conditions": "200 nM, relative to WT control (=1), own control 1.11 ± 0.25, p < 0.001 vs control", "procedure": "(§1) Cell surface biotinylation was performed as previously described ([26]). In brief, A549 cells or transiently transfected HEK-293 cells were grown in 10 cm dishes in 37°C, 5% CO2 incubator in DMEM medium supplemented with 5% FBS. […] Medium was aspirated, and then cells were washed twice with 10 ml ice-cold phosphate-buffered saline (PBS), covered with 2.5 mg EZ-Link Sulfo-NHS-SS-Biotin (Thermo Scientific, Rockford, USA), dissolved in 10 ml ice-cold PBS, and incubated at 4°C with gentle agitation for 30 min. Fifty milliliters of quenching solution were added to cells; then cells were scraped in solution and transferred to fresh 50 ml tube. Cell suspension was centrifuged at 500 × g for 3 min. Supernatant was discarded, and 5 ml of Tris-buffered saline (TBS) was added to the cell pellet. The cell pellet was resuspended and centrifuged at 500 × g for 3 min. Supernatant was discarded and cell pellet was resuspended in lysis buffer containing protease inhibitor cocktail (10 µM pepstatin A, 10 µM phenylmethylsulfonyl fluoride, and 10 µM leupeptin) and transferred to fresh 1.5 ml centrifuge tube. Cell pellet was then homogenized on ice by ultrasonication using 1 s bursts and incubated on ice for at least 30 min. Intact cells and nuclei were pelleted by centrifugation at 10,000 × g for 2 min under cooling conditions. […] Exposed films were scanned and quantified using ImageJ (NIH, MD, USA). […]"}, "[1]": {"tested_on": "αT169fs (co-expressed with βγ-ENaC)", "assay": "Whole-cell patch clamp, αT169fs + WT βγ", "conditions": "read-out: EC50, solnatide, HEK-293, whole-cell, -100 mV, n = 9", "procedure": "Point mutations of α-, β-, γ- and δ-hENaC and PHA1B frameshift mutations of α-hENaC were prepared with the QuikChange Lightning Site-Directed Mutagenesis Kit (Agilent Technologies, CA, USA). Mutagenic primers were designed individually with the Primer Design Program provided on the producer’s website or for the frameshift mutations the same base changes as reported in patients (see Table 2) were performed. Primers were ordered from Sigma-Aldrich, Vienna, Austria.\nHEK-293 cells were transfected 1 day after cell seeding using X-tremeGENE HP DNA transfection reagent (Roche Diagnostics, Mannheim, Germany) according to the manufacturer’s protocol. A set of WT or mutant αβγ- or δβγ-hENaC, or α-, β-, γ-, or δ-hENaC alone was used, and the ratio of DNA to transfection reagent was 1:3. The expression was highest 48–72 h after transfection.\nElectrophysiological experiments were performed as described in detail by Shabbir et al. ([16]). […] Currents were recorded with the patch clamp method in the whole-cell mode. The chamber contained 1 ml of the bath solution of the following composition (in mM): 145 NaCl, 2.7 KCl, 1.8 CaCl2, 2 MgCl2, 5.5 glucose, and 10 HEPES, adjusted to pH 7.4 with 1 M NaOH solution. Micropipettes were pulled from thin-walled borosilicate glass capillaries (Harvard Apparatus, Holliston, MA, USA) with a DMZ Zeitz Puller to obtain electrode resistances ranging from 2 to 5 MΩ. […]"}, "αF435fs": {"tested_on": "αF435fs", "assay": "Membrane abundance of αF435fs", "procedure": "as §1, with “conditions. Pellet was then discarded and supernatant was transferred to fresh tube, incubated overnight with 0.5 ml NeutrAvidin Agarose under gentle rotation at 4°C and centrifuged at 500 × g for 5 min under cooling conditions. Supernatant was then discarded and the pellet washed twice with 200 µl lysis buffer. The biotinylated proteins were eluted with 100 µl sodium dodecyl sulfate (SDS) sample buffer (62.5 mM Tris, pH 6.8, 1% SDS, 10% glycerine, 50 mM dithiothreitol) containing 10 µM E64 at 65°C for 10 min. Sample was then centrifuged at 500 × g for 2 min. Pellet was discarded and supernatant subjected to protein electrophoresis and immunoblotting.” for “conditions.”"}},
  "data": [
    {"smiles": "C[C@@H]1NC(=O)CNC(=O)[C@H](CCC(=O)O)NC(=O)[C@@H]2CCCN2C(=O)[C@H]([C@@H](C)O)NC(=O)[C@H](CCC(=O)O)NC(=O)[C@H](CCCNC(=N)N)NC(=O)[C@H](CCC(N)=O)NC(=O)CNC(=O)[C@@H](N)CSSC[C@@H](C(=O)O)NC(=O)[C@H](Cc2ccc(O)cc2)NC(=O)[C@H](Cc2c[nH]c3ccccc23)NC(=O)[C@@H]2CCCN2C(=O)[C@H](CCCCN)NC(=O)[C@H](C)NC(=O)[C@H](CCC(=O)O)NC1=O", "note": "[solnatide, L-cysteine, L-cysteinylglycyl-L-glutaminyl-L-arginyl-L-α-glutamyl-L-threonyl-L-prolyl-L-α-glutamylglycyl-L-alanyl-L-α-glutamyl-L-alanyl-L-lysyl-L-prolyl-L-tryptophyl-L-tyrosyl-, cyclic (1→17)-disulfide]", "values": [
      {"measurement": "Membrane abundance, solnatide 5 min", "setting": "αS452fs; 5 min", "result": "1.36 ± 0.11"},
      {"measurement": "Membrane abundance, solnatide 10 min", "setting": "αS452fs; 10 min", "result": "1.94 ± 0.08"},
      {"measurement": "EC50", "setting": "[1]", "result": "58.3 ± 5.2", "unit": "nM"},
      {"measurement": "Membrane abundance, solnatide 5 min", "setting": "αF435fs; 200 nM, 5 min, relative to WT control (=1), own control 2.37 ± 0.15, p < 0.001 vs control", "result": "3.71 ± 0.20"},
      {"measurement": "Membrane abundance, solnatide 10 min", "setting": "αF435fs; 200 nM, 10 min, relative to WT control (=1), own control 2.37 ± 0.15, p < 0.01 vs control", "result": "2.82 ± 0.17"},
      {"measurement": "Membrane abundance after solnatide", "setting": "αF435fs; HEK-293", "result": "the membrane abundance increasing even further following exposure to solnatide"}
    ]}
  ]
}
